Data from PubChem BioAssay AID1845198 (Molecular Pharmacology Branch, DTP, NCI, 2023).
“And” between values parts separate entries of the source, which are not always exact repeats. Equal entries are not always repeated. Values belong to the molecule of their own block, whether it stands above or below them.

System: 425362-245-T-J1 tumor spheroids, viability % test/control
Assay: Anticancer human tumor 425362-245-T-J1 patient-derived melanoma cell line growth inhibition
Conditions: spheroids with HUVEC and MSC; for viability, T/C: stronger effect = lower value
Description: Multicellular complex tumor spheroid response to DNA repair inhibitors in combination with DNA-damaging drugs
This study explores the anticancer activities of DNA-damaging drugs and inhibitors of DNA damage repair, both as single agents and in combinations. Complex tumor spheroids comprised of malignant cells, endothelial cells and mesenchymal stem cells served as an in vitro model for human solid tumors. This model system incorporates physiologically relevant features and patient-derived or established malignant cell lines with clinically relevant genetic alterations from many tumor types. Twenty-six patient-derived or established malignant cell lines were evaluated representing sarcoma, melanoma, small cell lung cancer (SCLC), non-small cell lung cancer (NSCLC), as well as bladder, ovarian and pancreatic cancers. The concentration ranges selected for each drug and investigational agent were based upon clinically achievable concentrations if the clinical Cmax of the agent was known.
Compounds. The drugs and compounds olaparib (NSC753686), talazoparib (NSC767125), berzosertib (NSC777718), elimusertib (NSC800525), nedisertib (NSC802822), VX-984 (NSC792969), AZD-1390 (NSC803789), temozolomide (NSC362856), topotecan (NSC609699), trabectedin (NSC813783), staurosporine (NSC755774), and gemcitabine (NSC613327) were obtained from the National Cancer Institute (NCI) Developmental Therapeutics Program Chemical Repository. The FDA-approved anticancer drug set is available from the Developmental Therapeutics Program at https://dtp.cancer.gov/organization/dscb/obtaining/available_plates.htm. […] The stock solutions were prepared in dimethyl sulfoxide (DMSO, Sigma-Aldrich, St. Louis, MO, cat. D2650) at 400-fold the tested concentration and stored at -70 degrees C. Prior to their use, the stock solutions were diluted in fresh medium and the final DMSO concentration in the assay was 0.25% (v/v). All drugs and investigational agents were tested over a range starting from a high concentration at or near the clinical Cmax and decreasing in half-log increments. If the clinical Cmax for an agent had not been determined, the highest concentration tested was 10 microM.
Cell Lines. The patient-derived cancer cell (PDC) lines: 156681-154-R-J1-PDC, 283228-195-R-J1-PDC, 287954-098-R-J1-PDC, 292921-168-R-J2-PDC, 349418-098-R-PDC, 425362-245-T-J1-PDC, 556581-035-R-J1-PDC, and BL0293-F563-PDC were received from the NCI Patient-Derived Models Repository (PDMR, https://pdmr.cancer.gov). The established cell lines HS-SY-2 (RRID:CVCL_8719), MPNST, and SYO-1 (RRID:CVCL_7146) were obtained from the Sloan Kettering Institute. The alveolar soft parts sarcoma cell line ASPS-1 (RRID:CVCL_S738) was established at the NCI and grown from internal seed stocks. The following established cell lines were purchased from the American Type Culture Collection (ATCC, Manassas, VA): G-401 (ATCC, cat. CRL-1441, RRID:CVCL_0270), SW982 (ATCC, cat. HTB-93, RRID:CVCL_1734), VA-ES-BJ (ATCC, cat. CRL-2138, RRID:CVCL_1785), NCI-H719 (ATCC, cat. CRL-5837, RRID:CVCL_1582), NCI-H196 (ATCC, cat. CRL-5823, RRID:CVCL_1509), NCI-H841 (ATCC, cat. CRL-5845, RRID:CVCL_1595), NCI-H1618 (ATCC, cat. CRL-5879, RRID:CVCL_1480), NCI-H1876 (ATCC, cat. CRL-5902, RRID:CVCL_1503), DMS 114 (ATCC, cat. CRL-2066; RRID:CVCL_1174), NCI-H211 (ATCC, cat. CRL-5824; RRID:CVCL_1529), and SW 1271 (ATCC, cat. CRL-2177, RRID:CVCL_1716). The small cell lung cancer cell line COR-L88 was purchased from Sigma-Aldrich (cat. 92031917-1VL, RRID:CVCL_1141). The non-small cell lung cancer cell lines NCI-H226 (RRID:CVCL_1544) and NCI-H322M (RRID:CVCL_1557) were established at the NCI and grown from internal seed stocks. Pooled donor human umbilical vein endothelial cells (HUVEC, Lonza, cat. CC-2519) and human mesenchymal stem cells (hMSC, Lonza, cat. PT-2501) were purchased from Lonza (Walkersville, MD).
Cell Culture. All cells were maintained in an incubator at 37 degrees C and 5% CO2 with 95% humidity. […]

[1] = compound alone, run of 10/17/2019
[2] = compound alone, run of 10/25/2019
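Also: spheroids exposed to agents for 7 days.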
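For viability, T/C in this document: 100% = DMSO vehicle control viability.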

SMILES: CC(C)n1c(=O)n(C)c2cnc3cc(F)c(-c4ccc(OCCCN5CCCCC5)nc4)cc3c21
- viability, T/C (compound 0.0316 µM): 56.5% and 67.4% and 67.2%
- viability, T/C (compound 0.1 µM): 43.4% and 60.3% and 69.2%
- viability, T/C (compound 0.316 µM): 44.1% and 39.9% and 36.1%
- viability, T/C (compound 1 µM): 27.5% and 20.1% and 23.2%
- viability, T/C (compound 3.16 µM): 17.4% and 14.7% and 14.3%
- viability, T/C (compound 10 µM): 7.66% and 5.49% and 5.26%
- IC50 (curve of compound): 72.1 nM and 175 nM and 198 nM

SMILES: CC1COCCN1c1cc(-c2ccnn2C)c2ccnc(-c3ccn[nH]3)c2n1 (stereo unspecified)
- viability, T/C (compound 0.0316 µM): 34.4% and 43.6% and 45.5%
- viability, T/C (compound 0.1 µM): 13.7% and 12.7% and 17.3%
- viability, T/C (compound 0.316 µM): 7.51% and 9.92% and 13.6%
- viability, T/C (compound 1 µM): 6.44% and 8.46% and 7.34%
- viability, T/C (compound 3.16 µM): 6.81% and 10.8% and 7.05%
- viability, T/C (compound 10 µM): 8.79% and 9.71% and 7.27%
- IC50 (curve of compound): < 31.6 nM

- IC50 [1]: 21.5 nM [middle of 5 runs]
- IC50 [2]: 23.4 nM [middle of 4 runs]
SMILES: CC[C@@]1(O)C(=O)OCc2c1cc1n(c2=O)Cc2cc3c(CN(C)C)c(O)ccc3nc2-1
- viability, T/C (compound 0.00949 µM): 89.3% [middle of 10 runs]
- viability, T/C (compound 0.03 µM): 38.3% [middle of 10 runs]
- viability, T/C (compound 0.0949 µM): 6.41% [middle of 10 runs]
- viability, T/C (compound 0.3 µM): 1.78% [middle of 10 runs]

SMILES: CNCc1ccc(-c2cc(-c3nc(-c4ccc(S(=O)(=O)C(C)C)cc4)cnc3N)on2)cc1
- viability, T/C (compound 0.00949 µM): 93.8% and 103% and 111%
- viability, T/C (compound 0.03 µM): 103% and 83.1% and 105%
- viability, T/C (compound 0.0949 µM): 44.3% and 46.4% and 79.6%
- viability, T/C (compound 0.3 µM): 8.53% and 6.26% and 5.89%
- viability, T/C (compound 0.949 µM): 3.67% and 5.06% and 2.41%
- viability, T/C (compound 3 µM): 0.18% and 0.4% and 0.23%
- IC50 (curve of compound): 84 nM and 79.5 nM and 151 nM

SMILES: COc1cc(C)[nH]c(=O)c1CN1CCc2c(Cl)cc(C(OC)C3COC3)c(Cl)c2C1=O (stereo unspecified)
- viability, T/C (compound 0.0316 µM): 107% and 103% and 97%
- viability, T/C (compound 0.1 µM): 103% (2×) and 108%
- viability, T/C (compound 0.316 µM): 106% and 97.8% and 99.9%
- viability, T/C (compound 1 µM): 95.9% and 103% and 98.4%
- viability, T/C (compound 3.16 µM): 97.4% and 104% and 96.1%
- viability, T/C (compound 10 µM): 89.9% and 92.6% and 88.8%
- IC50 (curve of compound): > 10000 nM

SMILES: COc1cc2c(cc1O)CCNC21CSC2c3c(OC(C)=O)c(C)c4c(c3C(COC1=O)N1C(O)C3Cc5cc(C)c(OC)c(O)c5C(C21)N3C)OCO4 (stereo unspecified)
- viability, T/C (compound 30 pM): 98% [middle of 10 runs]
- viability, T/C (compound 94.9 pM): 95.6% [middle of 10 runs]
- viability, T/C (compound 0.0003 µM): 40.8% [middle of 10 runs]
- viability, T/C (compound 0.000949 µM): 0.32% [middle of 9 runs]
- viability, T/C (compound 0.003 µM): 0.21% [middle of 9 runs]
- IC50 [2]: 0.243 nM [middle of 9 runs]

SMILES: COc1ccc([C@@H](O)c2cc(-c3ncnc4cc(N5CCOCC5)ccc34)c(F)cc2Cl)nn1
- viability, T/C (compound 0.0316 µM): 101% and 96.8% and 105%
- viability, T/C (compound 0.1 µM): 92.6% and 110% and 104%
- viability, T/C (compound 0.316 µM): 90.7% and 98.8% and 92.3%
- viability, T/C (compound 1 µM): 65.5% and 76.1% and 72.6%
- viability, T/C (compound 3.16 µM): 38% and 44.5% and 42.9%
- viability, T/C (compound 10 µM): 18.8% and 22.8% and 19.7%
- IC50 (curve of compound): 1930 nM and 2520 nM and 2400 nM

SMILES: Cc1cc(C)c(CNC(=O)c2cc(-c3ccc(CN4CCOCC4)cc3)cc3c2cnn3C2CCCC2)c(=O)[nH]1
- viability, T/C (compound 0.0316 µM): 101% and 97.2% and 92.7%
- viability, T/C (compound 0.1 µM): 93% and 116% and 102%
- viability, T/C (compound 0.316 µM): 103% and 97.9% and 84.5%
- viability, T/C (compound 1 µM): 100% and 80.2% and 86.5%
- viability, T/C (compound 3.16 µM): 81.8% and 49.8% and 46.3%
- viability, T/C (compound 10 µM): 42.6% and 15.2% and 14.8%
- IC50 (curve of compound): 8060 nM and 3010 nM and 2860 nM

SMILES: Cc1sc2c(c1C)C(c1ccc(Cl)cc1)=NC(CC(=O)Nc1ccc(O)cc1)c1nnc(C)n1-2 (stereo unspecified)
- viability, T/C (compound 0.00949 µM): 97.8% and 84.1% and 108%
- viability, T/C (compound 0.03 µM): 91.2% and 76% and 93%
- viability, T/C (compound 0.0949 µM): 49.5% and 47.9% and 42.8%
- viability, T/C (compound 0.3 µM): 12.8% and 12% and 8.15%
- viability, T/C (compound 0.949 µM): 5.36% and 3.14% and 2.44%
- viability, T/C (compound 3 µM): 2.57% and 1.92% and 2.11%
- IC50 (curve of compound): 95.3 nM and 85.6 nM and 80.2 nM

SMILES: Cn1ncnc1[C@H]1c2n[nH]c(=O)c3cc(F)cc(c23)N[C@@H]1c1ccc(F)cc1
- viability, T/C (compound 0.00949 µM): 74.9% and 69% and 59.1%
- viability, T/C (compound 0.03 µM): 46.1% and 42.9% and 33.5%
- viability, T/C (compound 0.0949 µM): 35.3% and 25.2% and 18.1%
- viability, T/C (compound 0.3 µM): 16.1% and 14.1% and 15.6%
- viability, T/C (compound 0.949 µM): 10.1% and 9.44% and 9.39%
- viability, T/C (compound 3 µM): 3.22% and 2.7% and 1.7%
- IC50 (curve of compound): 29 nM and 22 nM and 14.1 nM

- IC50 [1]: > 100000 nM
SMILES: Cn1nnc2c(C(N)=O)ncn2c1=O
- viability, T/C (compound 3.16 µM): 106% [middle of 10 runs]
- viability, T/C (compound 31.6 µM): 108% [middle of 10 runs]
- viability, T/C (compound 100 µM): 92.1% [middle of 10 runs]

SMILES: O=C(c1cc(Cc2n[nH]c(=O)c3ccccc23)ccc1F)N1CCN(C(=O)C2CC2)CC1
- viability, T/C (compound 0.0949 µM): 92.6% and 110% and 97.2%
- viability, T/C (compound 0.3 µM): 82.7% and 97.3% and 92.5%
- viability, T/C (compound 0.949 µM): 73.7% and 88.9% and 75.7%
- viability, T/C (compound 3 µM): 41.4% and 60.6% and 45.6%
- viability, T/C (compound 9.49 µM): 12% and 18.8% and 18.9%
- viability, T/C (compound 30 µM): 7.13% and 11.4% and 9.39%
- IC50 (curve of compound): 2140 nM and 3840 nM and 2500 nM

SMILES: [2H]c1nc(C)nc([2H])c1-c1cc(NC[C@@H](C)c2cccc3c(C(=O)NC)ccnc23)ncn1
- viability, T/C (compound 0.0316 µM): 103% and 96.9% and 88.3%
- viability, T/C (compound 0.1 µM): 97.1% and 90.8% and 81.5%
- viability, T/C (compound 0.316 µM): 112% and 98.8% and 69.9%
- viability, T/C (compound 1 µM): 108% and 104% and 63.5%
- viability, T/C (compound 3.16 µM): 110% and 96.8% and 52.8%
- viability, T/C (compound 10 µM): 103% and 96.5% and 25.2%
- IC50 (curve of compound): > 10000 nM and 2820 nM
